Results published in paper PMC10182601, “Biological evaluation of novel gemcitabine analog in patient-derived xenograft models of pancreatic cancer” (BMC Cancer, 2023).
Where a name gives a salt, the structure may show the parent alone.

Columns and labels:
[1] = test system: PCa PDX tumor from Black patients; assay: Tumor efficacy in PDX mice bearing tumors from Black PCa patients; assay type: in vivo; conditions: 30 mg/kg Gem equivalent i.v. twice weekly for 3 weeks
Excerpt: (§1) The implantation of surgical tumor tissue into immuno-compromised mice was described previously. A viable portion of resected tissue 2 × 2 mm in size was briefly isolated immediately from surgically resected primary PCa specimens (from Blacks and White patients) with care to minimize critical ischemia time. The PCa tissues were then implanted subcutaneously into an 8-week-old mouse (The Jackson Laboratory, Bar Harbor, ME). The xenografts were allowed to grow to a maximum diameter of 1.5 cm before passage and in vitro culture.
(§2) Mice-bearing surgically implanted tumors obtained from Black and White patients with sizes of 70–100 mm^3 were randomized into groups as control, GemHCl, and 4NSG-SLN (n = 5/group). Baseline tumor volume was established, and dosing initiation began on day 1 with intravenous administration of 30 mg/kg Gem (twice weekly for 3 weeks) with an equivalent dose of GemHCl and 4NSG-SLN [42]. Once tumors became palpable, their volume was measured thrice per week, and the mice's weight was recorded twice weekly. Tumor volumes were measured using digital calipers and calculated using the following equation: V = (L*(W)^2)/2, where V is the volume (mm^3), W(width) is the smaller of two perpendicular tumor axes, and the L (length) is the larger of two vertical axes. Mean tumor volume growth curves were calculated for each treatment group.

[2] = test system: PCa PDX tumor from White patients; assay: Tumor efficacy in PDX mice bearing tumors from White PCa patients; assay type: in vivo; conditions: 30 mg/kg Gem equivalent i.v. twice weekly for 3 weeks
Excerpt: as §1, §2

[3] = test system: HER2; assay: Immunohistochemistry of PDX tumor tissue, HER2; assay type: in vivo, mice
[4] = test system: VEGFR; assay: Immunohistochemistry of PDX tumor tissue, VEGFR; assay type: in vivo, mice; conditions: for VEGF % Moderate Positive Cells / VEGF % Positive / VEGF % Weak Positive Cells / VEGF H Score / VEGF % Strong Positive Cells: IHC
Procedure: [The source words this procedure for another target and reports this target under the same test.] Tissue samples from mice bearing tumors from Black and White PCa patients post treatments with GemHCl and 4NSG-SLN were excised and immediately washed with PBS, fixed (10% buffered formalin) for 24 h, and transferred to 70% ethanol for histopathological analysis. Histology was performed by HistoWiz Inc. (Histowiz.com) according to manufacturer protocol. Samples were embedded in paraffin, and 4 μm sections were prepared. Immunohistochemistry was performed on a Bond Rx autostainer (Leica Biosystems) with enzyme treatment (1:1000) using standard protocols (https://home.histowiz.com/faq/). Samples were incubated overnight with primary antibodies (Antibodies used were rat monoclonal F4/80 primary antibody (eBioscience, 14–4801, and 1:200), and immunohistochemical staining was done using rabbit anti-rat secondary (Vector Labs, 1:100). Bond Polymer Refine Detection was used per the manufacturer's protocol (Leica Biosystems). After staining, sections were dehydrated and filmed, coverslipped using a Tissue-Tek Prisma coverslip (Sakura). Whole slide scanning (40x) was performed on an Aperio AT2 (Leica Biosystems).

[5] = BT PDX tumor tissue after treatment, IHC
[6] = BT and WT PDX tumor tissues, 40X
[7] = WT PDX tumor tissue after treatment, IHC
[8] = BT PDX tumor tissue after treatment
[9] = WT PDX tumor tissue after treatment

## Nc1ccn([C@@H]2O[C@H](CO)[C@@H](O)C2(F)F)c(=O)n1 [GemHCl, Gemcitabine hydrochloride]
[1]; day 1, BT PDX mice
  Mean terminal tumor volume: 12.5 ± 6 mm^3
[1]; day 3, BT PDX mice
  Mean terminal tumor volume: 25.0 ± 12 mm^3
[1]; day 5, BT PDX mice
  Mean terminal tumor volume: 35.7 ± 18 mm^3
[1]; day 7, BT PDX mice
  Mean terminal tumor volume: 73.0 ± 21 mm^3
[1]; day 11, BT PDX mice
  Mean terminal tumor volume: 662. ± 198 mm^3
[1]; day 13, BT PDX mice
  Mean terminal tumor volume: 767. ± 194 mm^3
[1]; day 15, BT PDX mice
  Mean terminal tumor volume: 911. ± 152 mm^3
[1]; day 17, BT PDX mice
  Mean terminal tumor volume: 990. ± 151 mm^3
[1]; day 19, BT PDX mice
  Mean terminal tumor volume: 1129 ± 172 mm^3
[1]; day 21, BT PDX mice
  Mean terminal tumor volume: 1204 ± 184 mm^3
[1]; day 23, BT PDX mice
  Mean terminal tumor volume: 1456 ± 154 mm^3
[1]; day 25, BT PDX mice
  Mean terminal tumor volume: 1681 ± 172 mm^3
[2]; day 0, WT (patient tumor) PDX mice
  Mean terminal tumor volume: 0 mm^3
[2]; day 1, WT PDX mice
  Mean terminal tumor volume: 13.9 ± 2 mm^3
[2]; day 3, WT PDX mice
  Mean terminal tumor volume: 27.8 ± 4 mm^3
[2]; day 5, WT PDX mice
  Mean terminal tumor volume: 39.7 ± 5 mm^3
[2]; day 7, WT PDX mice
  Mean terminal tumor volume: 43.5 ± 16 mm^3
[2]; day 9, WT PDX mice
  Mean terminal tumor volume: 177.8 ± 60 mm^3
[2]; day 11, WT PDX mice
  Mean terminal tumor volume: 583.2 ± 227 mm^3
[2]; day 13, WT PDX mice
  Mean terminal tumor volume: 646.9 ± 240 mm^3
[2]; day 15, WT PDX mice
  Mean terminal tumor volume: 752.6 ± 241 mm^3
[2]; day 17, WT PDX mice
  Mean terminal tumor volume: 850.8 ± 205 mm^3
[2]; day 19, WT PDX mice
  Mean terminal tumor volume: 868.2 ± 294 mm^3
[2]; day 21, WT PDX mice
  Mean terminal tumor volume: 1053 ± 86 mm^3
[2]; day 23, WT PDX mice
  Mean terminal tumor volume: 1344.7 ± 171 mm^3
[2]; day 25, WT PDX mice
  Mean terminal tumor volume: 1748.2 ± 223 mm^3
[3]; [5]
  HER2 % Moderate Positive Cells: 7.2 ± 4.3%
  HER2 % Positive: 17.2 ± 1.0%
  HER2 % Strong Positive Cells: 3.7 ± 0.8%
  HER2 % Weak Positive Cells: 9.3 ± 1.4%
  HER2 %Negative Cells: 62.6 ± 3.4%
  HER2 H Score: 31.8
[3]; [6]
  HER2 expression in representative IHC images: moderate to high
[3]; [7]
  HER2 % Positive: 19.9 ± 1.5%
  HER2 % Strong Positive Cells: 3.6 ± 1.2%
  HER2 % Weak Positive Cells: 8.9 ± 0.8%
  HER2 %Negative Cells: 57.4 ± 7.3%
  HER2 H Score: 30.9
[4]; [8]
  VEGF % Moderate Positive Cells: 0.6 ± 0.2%
  VEGF % Positive: 27 ± 0.4%
  VEGF % Weak Positive Cells: 1.2 ± 0.3%
  VEGF H Score: 4.7
[4]; BT PDX tumor tissue after treatment, first line of this name (r21)
  VEGF % Strong Positive Cells: 0.5 ± 0.1%
[4]; BT PDX tumor tissue after treatment, second line of this name (r22)
  VEGF % Strong Positive Cells: 70.7 ± 7.8%
[4]; [6]
  VEGFR expression in representative IHC images: moderate to high
[4]; [9]
  VEGF % Moderate Positive Cells: 0.6 ± 0.1%
  VEGF % Positive: 30 ± 1.4%
  VEGF % Weak Positive Cells: 0.7 ± 0.3%
  VEGF H Score: 10.0
[4]; WT PDX tumor tissue after treatment, first line of this name (r21)
  VEGF % Strong Positive Cells: 0.7 ± 0.3%
[4]; WT PDX tumor tissue after treatment, second line of this name (r22)
  VEGF % Strong Positive Cells: 68 ± 3.8%
